O=C1C=CC(=O)N1c1ccccc1Br
solubility (mole fraction)
Settings	278.15 K	283.15 K	288.15 K	293.15 K	298.15 K	303.15 K	308.15 K	313.15 K	318.15 K	323.15 K
in DMF	0.141	0.163	0.189	0.219	0.253	0.284	0.318	0.363	0.411	0.473
in DMSO	–	–	–	0.156	0.177	0.21	0.238	0.288	0.327	0.387
in NMP	0.117	0.131	0.154	0.179	0.212	0.245	0.284	0.324	0.372	0.424
in acetone	0.0947	0.108	0.125	0.144	0.164	0.19	0.223	0.263	0.306	0.356
in acetonitrile	0.0291	0.0347	0.0422	0.0521	0.0621	0.0723	0.0857	0.103	0.121	0.139
in cyclohexane	0.00188	0.00224	0.00275	0.00344	0.00403	0.00487	0.00597	0.00744	0.00927	0.0117
in ethanol	0.0113	0.0134	0.0163	0.0204	0.0245	0.0287	0.0341	0.0411	0.0481	0.0556
in ethylene glycol	0.00377	0.00451	0.0055	0.00661	0.00819	0.00983	0.0115	0.0134	0.016	0.0184
in isobutanol	0.00649	0.00819	0.00989	0.0117	0.0141	0.0173	0.0204	0.0234	0.0276	0.0328
in isopropanol	0.00861	0.0104	0.0126	0.0157	0.019	0.0221	0.0261	0.0317	0.0375	0.0429
in methanol	0.0134	0.0162	0.0199	0.0249	0.03	0.0356	0.0421	0.0514	0.0604	0.0702
in n-butanol	0.00586	0.00717	0.00848	0.0106	0.0127	0.0147	0.0172	0.021	0.0247	0.0284
in n-propanol	0.00717	0.00866	0.0106	0.0132	0.016	0.0187	0.0225	0.0271	0.0323	0.0372
in water	0.000175	0.000217	0.000277	0.000348	0.000443	0.000543	0.000684	0.000812	0.000979	0.00119

— BigSolDB 2.1
